Like-named read-outs stand apart in the source and are kept apart here.
Key:
[1] = molecular target: Salmonella ribonucleotide reductase (Salmonella typhimurium, UniProt P17424); conditions: cited from earlier work
[2] = molecular target: T1, M. tuberculosis ribonucleotide reductase (Mycobacterium tuberculosis, UniProt P9WH75); test: biochemical; format: biochemical; conditions: for Maximal stimulated ribonucleotide reduction (Example 2): Example 2, written in present tense; for Maximal stimulated CDP reduction: equimolar R1 and R2, DTT as reductant
Target sequence in this assay (P9WH75 3-725): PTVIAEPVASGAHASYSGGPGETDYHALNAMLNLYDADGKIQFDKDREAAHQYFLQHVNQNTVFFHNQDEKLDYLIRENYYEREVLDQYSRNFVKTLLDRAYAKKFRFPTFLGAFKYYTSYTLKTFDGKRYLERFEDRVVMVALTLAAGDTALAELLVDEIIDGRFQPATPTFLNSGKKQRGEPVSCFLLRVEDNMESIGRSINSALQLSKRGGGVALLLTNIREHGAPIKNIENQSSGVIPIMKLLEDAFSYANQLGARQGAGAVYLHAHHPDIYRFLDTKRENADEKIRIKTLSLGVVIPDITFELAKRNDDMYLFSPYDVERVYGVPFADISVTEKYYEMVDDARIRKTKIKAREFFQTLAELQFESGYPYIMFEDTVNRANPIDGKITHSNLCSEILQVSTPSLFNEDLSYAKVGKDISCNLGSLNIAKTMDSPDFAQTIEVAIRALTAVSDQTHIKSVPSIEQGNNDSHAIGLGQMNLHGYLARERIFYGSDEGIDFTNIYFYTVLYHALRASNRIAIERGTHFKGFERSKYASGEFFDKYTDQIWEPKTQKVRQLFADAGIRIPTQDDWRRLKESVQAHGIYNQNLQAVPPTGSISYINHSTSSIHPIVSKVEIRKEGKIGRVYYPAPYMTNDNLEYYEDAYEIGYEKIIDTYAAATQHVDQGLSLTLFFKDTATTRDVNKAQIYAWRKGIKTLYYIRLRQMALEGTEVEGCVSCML

M. smegmatis = conditions: 200 μg/ml hydroxyurea; cited from earlier work
[3] = molecular target: T2, calf thymus ribonucleotide reductase (Bos taurus, UniProt E1BI58); conditions: cited from earlier work
T2 construct: slightly higher than that found for calf thymus; host or cells: calf thymus
T2 sequence (E1BI58 entry or part of it): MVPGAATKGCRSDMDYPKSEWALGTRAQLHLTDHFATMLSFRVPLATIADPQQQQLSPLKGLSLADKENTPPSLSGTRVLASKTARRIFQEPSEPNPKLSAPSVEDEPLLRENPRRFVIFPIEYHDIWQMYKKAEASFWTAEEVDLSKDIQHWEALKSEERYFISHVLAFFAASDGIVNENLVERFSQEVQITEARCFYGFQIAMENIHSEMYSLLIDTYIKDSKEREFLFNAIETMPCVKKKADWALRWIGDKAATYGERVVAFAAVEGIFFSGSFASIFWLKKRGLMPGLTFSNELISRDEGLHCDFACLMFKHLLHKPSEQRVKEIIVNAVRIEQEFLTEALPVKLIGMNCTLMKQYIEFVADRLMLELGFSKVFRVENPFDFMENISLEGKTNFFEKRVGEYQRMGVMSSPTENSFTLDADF

[4] = molecular target: nrdA/nrdB ribonucleotide reductase (Escherichia coli, UniProt P00452); conditions: negative effector at higher concentrations; cited from earlier work
Chain of nrdA/nrdB ribonucleotide reductase (P69924 2-376): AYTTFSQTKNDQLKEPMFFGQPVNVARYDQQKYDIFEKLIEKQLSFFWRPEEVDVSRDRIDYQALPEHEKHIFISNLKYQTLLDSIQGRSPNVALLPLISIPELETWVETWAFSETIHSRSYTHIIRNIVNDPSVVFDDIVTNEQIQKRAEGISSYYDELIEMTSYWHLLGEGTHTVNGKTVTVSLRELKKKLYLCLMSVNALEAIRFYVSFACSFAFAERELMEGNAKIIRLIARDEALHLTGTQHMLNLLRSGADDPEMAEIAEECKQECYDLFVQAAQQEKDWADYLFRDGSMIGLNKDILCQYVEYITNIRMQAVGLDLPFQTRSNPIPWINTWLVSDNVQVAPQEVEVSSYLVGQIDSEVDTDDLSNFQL
Chain of nrdA/nrdB ribonucleotide reductase (P00452 whole entry): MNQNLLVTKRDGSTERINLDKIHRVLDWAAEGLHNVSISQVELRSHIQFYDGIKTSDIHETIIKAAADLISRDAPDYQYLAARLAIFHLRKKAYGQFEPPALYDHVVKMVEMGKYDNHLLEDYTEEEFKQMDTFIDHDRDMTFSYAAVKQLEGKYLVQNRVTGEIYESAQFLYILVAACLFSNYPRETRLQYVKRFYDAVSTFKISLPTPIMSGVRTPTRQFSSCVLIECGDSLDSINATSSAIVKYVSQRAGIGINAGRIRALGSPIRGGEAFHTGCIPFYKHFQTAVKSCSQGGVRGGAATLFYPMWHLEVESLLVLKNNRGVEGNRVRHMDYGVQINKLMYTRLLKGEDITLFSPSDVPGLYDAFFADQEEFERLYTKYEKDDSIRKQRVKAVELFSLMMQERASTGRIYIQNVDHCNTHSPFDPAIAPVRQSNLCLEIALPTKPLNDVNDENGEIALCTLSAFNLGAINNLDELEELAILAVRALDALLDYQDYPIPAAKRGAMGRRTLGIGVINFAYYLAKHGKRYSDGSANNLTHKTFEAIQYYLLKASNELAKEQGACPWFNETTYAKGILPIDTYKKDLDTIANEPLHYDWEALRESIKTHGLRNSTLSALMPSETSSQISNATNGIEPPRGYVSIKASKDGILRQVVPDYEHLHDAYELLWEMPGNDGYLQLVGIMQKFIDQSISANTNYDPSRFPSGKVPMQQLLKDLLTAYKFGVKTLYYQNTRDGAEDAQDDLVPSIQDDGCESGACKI

[5] = molecular target: T1, M. tuberculosis ribonucleotide reductase; format: biochemical
Target sequence in this assay (P9WH75 whole entry, looked up): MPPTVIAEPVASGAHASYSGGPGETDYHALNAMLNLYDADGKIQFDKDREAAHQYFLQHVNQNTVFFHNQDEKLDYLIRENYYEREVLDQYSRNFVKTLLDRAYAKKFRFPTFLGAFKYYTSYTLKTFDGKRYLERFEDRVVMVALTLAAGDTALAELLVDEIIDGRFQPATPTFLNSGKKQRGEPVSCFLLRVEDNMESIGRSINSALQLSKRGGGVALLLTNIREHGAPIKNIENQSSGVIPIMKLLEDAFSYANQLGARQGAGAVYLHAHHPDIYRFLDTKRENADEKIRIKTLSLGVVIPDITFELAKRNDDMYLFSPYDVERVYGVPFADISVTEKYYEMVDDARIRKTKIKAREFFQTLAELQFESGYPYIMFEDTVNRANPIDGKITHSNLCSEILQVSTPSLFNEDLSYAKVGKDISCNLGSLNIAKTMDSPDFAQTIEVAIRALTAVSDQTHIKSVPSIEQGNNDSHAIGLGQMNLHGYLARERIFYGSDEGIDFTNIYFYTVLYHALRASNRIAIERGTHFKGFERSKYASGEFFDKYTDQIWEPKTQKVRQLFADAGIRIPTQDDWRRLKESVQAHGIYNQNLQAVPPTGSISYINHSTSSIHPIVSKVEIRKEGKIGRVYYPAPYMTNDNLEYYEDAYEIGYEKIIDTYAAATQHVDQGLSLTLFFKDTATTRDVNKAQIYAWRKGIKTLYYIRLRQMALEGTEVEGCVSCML

[6] = molecular target: T3, nrdE/nrdF ribonucleotide reductase (Salmonella typhimurium, UniProt Q08698); conditions: cited from earlier work
T3 construct: host or cells: recombinant expression plasmid system (as reported)

[7] = molecular target: T4, mammalian enzyme (ribonucleotide reductase) (Homo sapiens, UniProt P23921); conditions: cited from earlier work
T4 sequence (P23921 1-792): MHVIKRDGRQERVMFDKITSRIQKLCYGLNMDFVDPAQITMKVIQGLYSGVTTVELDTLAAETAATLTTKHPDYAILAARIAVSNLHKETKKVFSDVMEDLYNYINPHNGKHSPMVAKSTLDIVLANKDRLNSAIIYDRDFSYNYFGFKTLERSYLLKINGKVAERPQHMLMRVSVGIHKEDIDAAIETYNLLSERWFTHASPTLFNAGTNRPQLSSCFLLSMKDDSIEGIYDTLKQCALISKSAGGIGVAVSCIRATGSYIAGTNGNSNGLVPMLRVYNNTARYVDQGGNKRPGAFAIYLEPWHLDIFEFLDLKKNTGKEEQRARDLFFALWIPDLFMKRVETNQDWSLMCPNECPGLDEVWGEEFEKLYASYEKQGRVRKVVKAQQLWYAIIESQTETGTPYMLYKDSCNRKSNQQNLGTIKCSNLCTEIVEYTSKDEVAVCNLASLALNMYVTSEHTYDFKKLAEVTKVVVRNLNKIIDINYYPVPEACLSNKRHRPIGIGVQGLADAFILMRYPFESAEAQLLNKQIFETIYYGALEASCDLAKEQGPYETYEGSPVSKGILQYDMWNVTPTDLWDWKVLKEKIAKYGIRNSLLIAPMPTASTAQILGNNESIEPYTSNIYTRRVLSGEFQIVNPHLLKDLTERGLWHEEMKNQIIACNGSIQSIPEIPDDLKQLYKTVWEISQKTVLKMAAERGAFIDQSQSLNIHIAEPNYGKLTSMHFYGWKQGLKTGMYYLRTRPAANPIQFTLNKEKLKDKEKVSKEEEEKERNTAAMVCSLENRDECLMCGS

[8] = molecular target: M. tuberculosis topoisomerase I (Mycobacterium tuberculosis, UniProt P9WG49); format: biochemical; conditions: 150 ng enzyme, 1.0 mM MgCl2
Chain of M. tuberculosis topoisomerase I (P9WG49 2-896, added parts left off): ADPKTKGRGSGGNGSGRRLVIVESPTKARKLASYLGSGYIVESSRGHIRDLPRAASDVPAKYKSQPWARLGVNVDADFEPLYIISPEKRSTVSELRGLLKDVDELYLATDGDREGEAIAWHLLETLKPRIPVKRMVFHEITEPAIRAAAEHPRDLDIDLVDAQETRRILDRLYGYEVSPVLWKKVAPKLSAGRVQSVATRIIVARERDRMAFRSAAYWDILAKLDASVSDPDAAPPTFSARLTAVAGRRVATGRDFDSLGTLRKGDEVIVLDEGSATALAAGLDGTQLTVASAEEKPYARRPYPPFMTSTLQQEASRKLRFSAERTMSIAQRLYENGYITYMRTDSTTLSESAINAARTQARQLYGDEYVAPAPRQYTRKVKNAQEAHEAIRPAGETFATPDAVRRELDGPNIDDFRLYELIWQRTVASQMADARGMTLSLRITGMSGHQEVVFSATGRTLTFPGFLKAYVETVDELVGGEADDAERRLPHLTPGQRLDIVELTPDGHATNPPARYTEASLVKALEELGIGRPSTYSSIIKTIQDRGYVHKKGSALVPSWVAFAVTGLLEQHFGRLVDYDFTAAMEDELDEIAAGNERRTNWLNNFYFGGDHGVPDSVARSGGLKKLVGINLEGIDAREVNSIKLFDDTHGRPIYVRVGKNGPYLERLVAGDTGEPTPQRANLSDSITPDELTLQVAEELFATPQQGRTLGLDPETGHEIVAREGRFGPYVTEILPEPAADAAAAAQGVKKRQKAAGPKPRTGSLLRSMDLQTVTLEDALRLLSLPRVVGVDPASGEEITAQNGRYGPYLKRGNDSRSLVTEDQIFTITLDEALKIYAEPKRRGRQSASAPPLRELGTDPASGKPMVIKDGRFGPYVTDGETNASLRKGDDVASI

[9] = molecular target: M. tuberculosis ribonucleotide reductase R1 (Mycobacterium tuberculosis, UniProt P9WH75); format: binding; conditions: 5 mM ATP
Chain of M. tuberculosis ribonucleotide reductase R1 (P9WH75 3-725 limits assumed): as the sequence (P9WH75 3-725) above

[10] = 5 mg reconstituted RR (1:1 R1 to R2-2), 6 mM CDP, 2 mM ATP, 0.0-0.5 mM inhibitor, read-out: IC50, inhibition of CDP reduction activity by C-terminal R2 peptides

Chain of Salmonella ribonucleotide reductase (P17424 whole entry): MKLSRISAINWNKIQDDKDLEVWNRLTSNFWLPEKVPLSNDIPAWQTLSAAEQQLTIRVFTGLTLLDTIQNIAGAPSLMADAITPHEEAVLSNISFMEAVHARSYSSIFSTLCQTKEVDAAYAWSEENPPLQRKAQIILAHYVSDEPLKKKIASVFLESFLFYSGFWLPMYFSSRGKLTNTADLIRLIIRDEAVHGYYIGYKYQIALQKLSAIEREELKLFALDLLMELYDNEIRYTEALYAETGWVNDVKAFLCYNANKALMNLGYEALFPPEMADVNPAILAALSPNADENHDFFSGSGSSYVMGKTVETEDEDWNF

For `NC(=O)NO` [hydroxyurea], the IC50 [1] is given as ~500 µM, the IC50 ([2]; read-out: IC50, inhibition of the activity of CDP reduction by hydroxyurea) is given as 2000 µM and the “Growth of M. smegmatis” value (M. smegmatis) is given as “completely inhibited”. For the same compound, the IC90 [3] was 1 mM.

For `Nc1ncnc2c1ncn2[C@H]1C[C@H](O)[C@@H](COP(=O)(O)OP(=O)(O)OP(=O)(O)O)O1` [dATP], the “Concentration up to which dATP activates, nrdA/nrdB system” value [4] is listed as “up to 1 uM”, the “Effect of nucleotide effector on ribonucleotide reductase activity of native enzyme” value [5] is listed as “inhibited” and the “Concentration up to which dATP is a positive allosteric activator, nrdE/nrdF system” value [6] is listed as “up to 1 mM”. The “dATP concentration above which inhibition is seen in the mammalian system” value [7] was “greater than 0.1 mM”, the “Maximal stimulated ribonucleotide reduction (Example 2)” value [2] was ≤ 13 pmoles deoxyribonucleotide in 20 min and the “Maximal stimulated CDP reduction” value [2] was ≤ 13 pmoles dCDP in 20 min. The “Highest concentration at which the effector still stimulated reduction” value ([2]; inhibition at higher concentrations) was ≤ 1 mM.

Work on “Ac-TDTDWDF-OH [R2P7-1, Acetyl-TDTDWDF-OH]” yielded an IC50 [2, 10] of 100 µM.

For `NCCCCNCCCN` [spermidine], the “DNA relaxing activity in the presence of spermidine” value ([8]; 4.0 mM spermidine) was “almost completely inhibited”.

In the case of “Ac-EDDDWDF-OH [R2P7-2, Acetyl-EDDDWDF-OH]”, the IC50 [2, 10] is reported as 15 to 20 µM.

For `Nc1ncnc2c1ncn2[C@@H]1O[C@H](COP(=O)(O)OP(=O)(O)OP(=O)(O)O)[C@@H](O)[C@H]1O` [ATP], the “Effect of nucleotide effector on ribonucleotide reductase activity of native enzyme” value [5] was “stimulated”, the “Labeling of the 84,000 Da band by [alpha-32P]dATP” value [9] was “completely inhibited” and the “Effect of ATP on DNA relaxing activity” value ([8]; 0.4-1.6 mM ATP) was “inhibited the reaction”. For the same compound, the “Concentration above which the effector inhibited the activity” value [2] was “higher than 2 mM”, the “Optimum concentration of activator for CDP reduction” value [2] was 1 to 2 mM and the “Maximal stimulated ribonucleotide reduction (Example 2)” value [2] was “up to 45 pmoles deoxyribonucleotide in 20 min”. For the same compound, the “Maximal stimulated CDP reduction” value [2] was “up to 45 pmoles dCDP in 20 min”.

Reference: patent US5834279A (priority 1997, dated 1998)
